From patent US20240277658A1, “NLRP3 ACTIVATORS FOR USE IN THE TREATMENT OF INFECTIOUS DISEASES OR CANCER BY ACTIVATING NLRP3 INFLAMMASOME” (ALBERT-LUDWIGS-UNIVERSITÄT FREIBURG, priority 2020, published 2024)
“And” between values parts separate entries of the source, which are not always exact repeats. Equal entries are not always repeated. Where two headings read alike, the source gives them in different places. Each block holds one compound with its values, some of them ahead of it.

Assays:
[1] = test system: BMDCs; experiment: LDH release (lytic cell death, pyroptosis) from LPS-primed BMDCs; assay type: cell-based, mouse; conditions: for Average (% positive control): LDH release; for cytotoxicity at 20 µM / cytotoxicity at 40 µM / cytotoxicity at 80 µM / cytotoxicity at 50 µM / cytotoxicity at 25 µM / cytotoxicity at 75 µM: Mus musculus, BMDC
Outline: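 LDH released into medium, detected colorimetrically, served as the pyroptosis read-out in triplicate. LPS-primed (50 ng ml^−1, 3 h) murine bone marrow-derived dendritic cells received test compounds, typically 50 μM, or nigericin (5 μM), R837 or CL097 (100 μM) for 3 hours.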

[2] = biological target: T1, NLRP3 inflammasome (Mus musculus, UniProt Q8R4B8); experiment: IL-1β release from LPS-primed BMDCs (ELISA) as readout of NLRP3 inflammasome activation; assay type: cell-based
T1 construct: endogenous in cells; host or cells: primary mouse bone marrow-derived dendritic cells (BMDCs), LPS-primed
T1 sequence (Q8R4B8 whole entry): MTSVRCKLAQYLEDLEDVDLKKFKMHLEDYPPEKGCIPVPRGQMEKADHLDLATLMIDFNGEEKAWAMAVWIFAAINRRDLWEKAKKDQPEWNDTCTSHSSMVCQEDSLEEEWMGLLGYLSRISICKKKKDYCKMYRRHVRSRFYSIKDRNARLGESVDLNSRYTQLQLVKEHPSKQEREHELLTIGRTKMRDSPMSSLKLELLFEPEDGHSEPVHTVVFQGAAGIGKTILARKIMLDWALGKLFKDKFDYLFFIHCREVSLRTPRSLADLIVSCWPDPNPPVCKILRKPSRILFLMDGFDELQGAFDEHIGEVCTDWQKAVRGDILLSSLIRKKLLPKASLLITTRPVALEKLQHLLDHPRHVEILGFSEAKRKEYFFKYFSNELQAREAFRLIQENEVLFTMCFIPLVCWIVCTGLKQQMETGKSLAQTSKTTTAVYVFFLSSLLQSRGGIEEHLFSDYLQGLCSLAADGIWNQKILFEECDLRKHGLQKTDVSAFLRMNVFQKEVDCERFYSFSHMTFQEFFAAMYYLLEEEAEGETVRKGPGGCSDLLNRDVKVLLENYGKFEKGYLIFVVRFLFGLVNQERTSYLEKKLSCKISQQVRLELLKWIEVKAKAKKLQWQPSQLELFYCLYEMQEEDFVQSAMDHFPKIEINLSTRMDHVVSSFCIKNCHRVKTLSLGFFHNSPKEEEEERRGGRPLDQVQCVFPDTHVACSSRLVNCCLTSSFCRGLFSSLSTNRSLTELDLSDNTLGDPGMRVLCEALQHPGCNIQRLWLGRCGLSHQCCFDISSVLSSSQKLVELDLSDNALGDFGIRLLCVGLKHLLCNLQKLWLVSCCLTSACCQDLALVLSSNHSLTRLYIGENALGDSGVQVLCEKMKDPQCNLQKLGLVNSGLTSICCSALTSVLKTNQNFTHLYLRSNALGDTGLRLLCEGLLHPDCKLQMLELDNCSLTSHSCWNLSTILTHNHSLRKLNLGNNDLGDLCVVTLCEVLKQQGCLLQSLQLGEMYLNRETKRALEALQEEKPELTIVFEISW
Outline: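 NLRP3 inflammasome activation was read out as IL-1β released into the supernatant, measured by ELISA. Murine BMDCs were primed with LPS (50 ng ml^−1, 3 hours), then incubated with compounds for 3 hours, with each condition run in three technical replicates. Nigericin at 5 μM acted as the positive control activator, and IL-1β release was also expressed as a percentage of that control.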

[3] = compound 50 μM, positive control nigericin 5 μM
[4] = compound 50 μM, LPS-primed BMDCs, read-out: Average LDH release (% of max.)
[5] = single replicates, compound 50 μM, LPS-primed BMDCs, read-out: LDH release (% of max.)
[6] = IL-1β release, compound 50 μM, positive control nigericin 5 μM
[7] = compound 50 μM, LPS-primed BMDCs
[8] = single replicates, compound 50 μM, LPS-primed BMDCs

Average IL-1β ([2]; 20 μM): 0.045 ng/mL
Average IL-1β ([2]; 40 μM): 0.192 ng/mL
Average IL-1β ([2]; 80 μM): 0.503 ng/mL
Average (% positive control) ([2]; IL-1β, 20 μM, positive control EN22): 2.292 % positive control
Average (% positive control) ([2]; IL-1β, 40 μM, positive control EN22): 9.827 % positive control
Average (% positive control) ([2]; IL-1β, 80 μM, positive control EN22): 25.697 % positive control
Structure (SMILES): O=C(Nc1ccccc1)Nc1ccc2ncccc2n1 [JB002, 1-(1,5-naphthyridin-2-yl)-3-phenylurea]
Average (% positive control) ([1]; 20 μM, positive control EN22 20 μM): 13.887 % positive control
Average (% positive control) ([1]; 40 μM, positive control EN22 20 μM): 17.760 % positive control
Average (% positive control) ([1]; 80 μM, positive control EN22 20 μM): 30.084 % positive control
cytotoxicity at 20 µM ([1]; 20 μM, individual replicate values, read-out: LDH release (% of max.)): 7.72%
cytotoxicity at 20 µM ([1]; 20 μM, read-out: Average LDH release (% of max.)): 7.4%
cytotoxicity at 40 µM ([1]; 40 μM, individual replicate values, read-out: LDH release (% of max.)): 9.38%
cytotoxicity at 40 µM ([1]; 40 μM, read-out: Average LDH release (% of max.)): 9.46%
cytotoxicity at 80 µM ([1]; 80 μM, individual replicate values, read-out: LDH release (% of max.)): 14%
cytotoxicity at 80 µM ([1]; 80 μM, read-out: Average LDH release (% of max.)): 16%
IL-1β ([2]; 20 μM, individual replicate values): 0.038 ng/mL and 0.050 ng/mL and 0.047 ng/mL
IL-1β ([2]; 40 μM, individual replicate values): 0.190 ng/mL and 0.197 ng/mL and 0.1902 ng/mL
IL-1β ([2]; 80 μM, individual replicate values): 0.464 ng/mL and 0.505 ng/mL and 0.540 ng/mL

Average IL-1β ([2]; 25 μM, AH series table): 0.194 ng/mL and 0.251 ng/mL
Average IL-1β ([2]; 75 μM, AH series table): 0.187 ng/mL
IL-1β ([2]; 75 μM, individual replicate values, AH series table): 0.176 ng/ml and 0.193 ng/ml (2×)
Average (% positive control) ([2]; IL-1β, 75 μM, positive control EN22 10 μM): 1.872 % positive control
Structure (SMILES): O=[N+]([O-])c1ccc(NC(=S)Nc2cccc(Cl)c2)c(Cl)c1 [AH2, 1-(2-chloro-4-nitrophenyl)-3-(3-chlorophenyl) thiourea]
Average (% positive control) ([1]; 25 μM, positive control EN22 10 μM): 29.680 % positive control
Average (% positive control) ([1]; 50 μM, positive control EN22 10 μM): 28.819 % positive control
Average (% positive control) ([1]; 75 μM, positive control EN22 10 μM): 33.532 % positive control
cytotoxicity at 25 µM ([1]; 25 μM, AH series table, read-out: Average LDH release (% of max.)): 22.8%
cytotoxicity at 25 µM ([1]; 25 μM, individual replicate values, AH series table, read-out: LDH release (% of max.)): 23.9%
cytotoxicity at 50 µM ([1]; 50 μM, AH series table, read-out: Average LDH release (% of max.)): 22.1%
cytotoxicity at 50 µM ([1]; 50 μM, individual replicate values, AH series table, read-out: LDH release (% of max.)): 22.8%
cytotoxicity at 75 µM ([1]; 75 μM, individual replicate values, read-out: LDH release (% of max.)): 25.1%
cytotoxicity at 75 µM ([1]; 75 μM, read-out: Average LDH release (% of max.)): 25.8%
IL-1β ([2]; 25 μM, individual replicate values, AH series table): 0.197 ng/mL and 0.186 ng/mL and 0.200 ng/mL and 0.280 ng/mL and 0.232 ng/mL and 0.243 ng/mL
Average (% positive control) ([2]; IL-1β, 25 μM, positive control EN22 10 μM): 1.942 % positive control and 2.514 % positive control

More lines, now with the values behind:

Structure (SMILES): O=C(Nc1ccccc1)Nc1ccc(NC2CCOCC2)cc1 [L01.065, 1-{4-[(oxan-4-l)amino]-phenyl}-3-phenylurea]
Average (% positive control) [1, 3]: 12.397 % positive control
cytotoxicity at 50 µM [1, 4]: 9.07%
cytotoxicity at 50 µM [1, 5]: 8.41%
Average (% positive control) [2, 6]: 0.928 % positive control
Average IL-1β [2, 7]: 0.067 ng/mL
IL-1β [2, 8]: 0.052 ng/mL and 0.070 ng/mL and 0.077 ng/mL

Structure (SMILES): CC(C)c1ccc(NC(=O)Nc2ccccc2)cc1 [L01.047, 1-phenyl-3-[4-(propan-2-yl)phenyl]urea]
Average (% positive control) [1, 3]: 16.514 % positive control
cytotoxicity at 50 µM [1, 4]: 12.1%
cytotoxicity at 50 µM [1, 5]: 12.1%
Average (% positive control) [2, 6]: 7.117 % positive control
Average IL-1β [2, 7]: 0.510 ng/mL
IL-1β [2, 8]: 0.505 ng/mL and 0.513 ng/mL and 0.512 ng/mL

Structure (SMILES): CC1Oc2ccc(NC(=O)Nc3ccccc3)cc2NC1=O (stereo not drawn) [L01.110, 3-(2-methyl-3-oxo-3,4-dihydro-2H-1,4-benzox-azin-6-yl)-1-phenylurea]
Average (% positive control) [1, 3]: 46.015 % positive control
cytotoxicity at 50 µM [1, 4]: 33.7%
cytotoxicity at 50 µM [1, 5]: 34.8%
Average (% positive control) [2, 6]: 36.599 % positive control
Average IL-1β [2, 7]: 2.624 ng/mL
IL-1β [2, 8]: 2.505 ng/mL and 2.943 ng/mL and 2.423 ng/mL

Structure (SMILES): Cc1cc(NC(=O)Nc2ccccc2)ccc1N1CCCC1 [L01.025, 3-[3-methyl-4-(pyrrol-idin-1-yl)phenyl]-1-phenylurea]
Average (% positive control) [1, 3]: 19.631 % positive control
cytotoxicity at 50 µM [1, 4]: 14.4%
cytotoxicity at 50 µM [1, 5]: 15%
Average (% positive control) [2, 6]: 5.130 % positive control
Average IL-1β [2, 7]: 0.368 ng/mL
IL-1β [2, 8]: 0.333 ng/mL and 0.280 ng/mL and 0.490 ng/mL

Structure (SMILES): COCc1cc(F)ccc1NC(=O)NC(c1nc(-c2cccnc2)no1)C(C)C (stereo not drawn) [L01.054, 1-[4-fluoro-2-(methoxy-methyl)phenyl]-3-{2-methyl-1-[3-(pyridin-3-yl)-1,2,4-oxadiazol-5-yl]propyl}urea]
Average (% positive control) [1, 3]: 11.431 % positive control
cytotoxicity at 50 µM [1, 4]: 8.36%
cytotoxicity at 50 µM [1, 5]: 7.79%
Average (% positive control) [2, 6]: 0.947 % positive control
Average IL-1β [2, 7]: 0.068 ng/mL
IL-1β [2, 8]: 0.067 ng/mL and 0.062 ng/mL and 0.074 ng/mL
